Laboratory results as given in patent US20090028873A1, “SUBSTITUTED CYCLOHEXANOLS” (AUSPEX PHARMACEUTICALS, INC., priority 2007, published 2009).
Where a name gives a salt, the structure may show the parent alone.

Experiment: In Vitro Human Liver Microsomal (HLM) Stability Assay
Type: in vitro ADME
Details: vs non-isotopically enriched drug, 1 μM, 4 mg per mL liver microsome protein, 37° C.
Protocol: Liver microsomal stability assays are conducted at 4 mg per mL liver microsome protein with an NADPH-generating system in 2% NaHCO3 (2.2 mM NADPH, 25.6 mM glucose 6-phosphate, 6 units per mL glucose 6-phosphate dehydrogenase and 3.3 mM MgCl2). Test compounds are prepared as solutions in 20% acetonitrile-water and added to the assay mixture (final assay concentration 1 μM) and incubated at 37° C. Final concentration of acetonitrile in the assay should be <1%. Aliquots (50 μL) are taken out at times 0, 0.5, 1, 1.5, and 2 hours, and diluted with ice cold acetonitrile (200 μL) to stop the reactions. Samples are centrifuged at 12,000 RPM for 10 min to precipitate proteins. Supernatants are transferred to micro centrifuge tubes and stored for LC/MS/MS analysis of the degradation half-life of the test compounds.
Results of In Vitro Human Liver Microsomal (HLM) Stability Assay

Row | Structure (SMILES) | % increase of HLM degradation half-life 0%-50% | % increase of HLM degradation half-life 50%-150% | further results
1 | [2H]O[C@@]1(c2c([2H])c([2H])c([2H])c(OC([2H])([2H])[2H])c2[2H])C([2H])([2H])C([2H])([2H])C([2H])([2H])C([2H])([2H])[C@@]1([2H])C([2H])([2H])N(C([2H])([2H])[2H])C([2H])([2H])[2H] [Example 1, d25-(−)-(1S,2S)-2-[(Dimethylamino)-methyll-1-(3-methoxyphenyl)-cyclohexanol)] | + (0%-50%) | – | –
2 | [2H]O[C@]1(c2c([2H])c([2H])c([2H])c(OC([2H])([2H])[2H])c2[2H])C([2H])([2H])C([2H])([2H])C([2H])([2H])C([2H])([2H])[C@]1([2H])C([2H])([2H])N(C([2H])([2H])[2H])C([2H])([2H])[2H] [Example 2] | – | – | % increase of HLM degradation half-life −25%-0% (column −25%-0%): + (−25%-0%)
3 | [2H]c1c([2H])c(O)c([2H])c([C@]2(O)C([2H])([2H])C([2H])([2H])C([2H])([2H])C([2H])([2H])[C@@]2([2H])C([2H])([2H])N(C([2H])([2H])[2H])C([2H])([2H])[2H])c1[2H] [Example 3] | + (0%-50%) | – | –
4 | COc1cccc(C2(O)CCCCC2CN(C)C)c1 (stereo not drawn) [Example 5, 2-(Dimethylaminomethyl)-1-(3-methoxyphenyl)-cyclohexanol, reference compound] | – | + (50%-150%) | –
5 | COc1cccc([C@@]2(O)CCCC[C@@H]2CN(C)C)c1 [Example 6, (1R, 2R)-2-(Dimethylaminomethyl)-1-(3-methoxyphenyl)-cyclohexanol hydrochloride, reference compound] | – | + (50%-150%) | –
6 | [2H]C([2H])([2H])Oc1cccc(C2(O)CCCCC2CN(C)C)c1 (stereo not drawn) [Example 8, d3-2-(Dimethylaminomethyl)-1-(3-methoxyphenyl)-cyclohexanol] | + (0%-50%) | – | –
7 | [2H]C([2H])([2H])Oc1cccc([C@@]2(O)CCCC[C@@H]2CN(C)C)c1 [Example 9, d3-(1R, 2R)-2-(Dimethylaminomethyl)-1-(3-methoxyphenyl)-cyclohexanol hydrochloride] | – | + (50%-150%) | –
8 | [2H]C([2H])([2H])N(CC1CCCCC1(O)c1cccc(OC)c1)C([2H])([2H])[2H] (stereo not drawn) [Example 11] | – | + (50%-150%) | –
9 | [2H]C([2H])([2H])N(C[C@H]1CCCC[C@]1(O)c1cccc(OC)c1)C([2H])([2H])[2H] [Example 12, d6-(1R,2R)-2-(Dimethylaminomethyl)-1-(3-methoxyphenyl)-cyclohexanol hydrochloride] | – | – | % increase of HLM degradation half-life >150% (column >150%): + (>150%)
